# Laboratory results reported in PubChem BioAssay AID264 (DTP/NCI, 2004).
# Where “and” joins values, the source holds several entries; their conditions need not be identical. Equal entries are not always repeated. Records with an inconclusive call do not appear.
# System: nude mice, LX-1 lung xenograft intrarenal, tumor weight T/C
# Test: NCI In Vivo Anticancer Drug Screen. Data for tumor model Human Lung LX-1 Xenograft (intrarenal inoculation) in NU/NU Swiss (nude) mice
# Conditions: endpoint: mean tumor weight change, higher = larger tumour
# Procedure, shortened: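 Tumor-bearing mice receive test compound or vehicle; tumor size is then measured in each group. The treated value is divided by the vehicle value to give T/C.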
# [1] = dose: 25.0 mg/kg/injection, schedule: Q01DX010 (sc), vehicle: Klucel (hydroxypropylcellulose) (HPC)
# [2] = dose: 50.0 mg/kg/injection, schedule: Q01DX010 (sc), vehicle: Klucel (hydroxypropylcellulose) (HPC)
# [3] = dose: 100.0 mg/kg/injection, schedule: Q01DX010 (sc), vehicle: Klucel (hydroxypropylcellulose) (HPC)
# [4] = dose: 12.5 mg/kg/injection, schedule: Q04DX003 (sc), vehicle: suspension in saline
# [5] = dose: 300.0 mg/kg/injection, schedule: Q04DX003 (sc), vehicle: saline with Tween-80
# [6] = dose: 600.0 mg/kg/injection, schedule: Q04DX003 (sc), vehicle: saline with Tween-80
# [7] = dose: 1200.0 mg/kg/injection, schedule: Q04DX003 (sc), vehicle: saline with Tween-80
# [8] = dose: 300.0 mg/kg/injection, schedule: Q04DX003 (sc), vehicle: Klucel (hydroxypropylcellulose) (HPC)
# [9] = dose: 600.0 mg/kg/injection, schedule: Q04DX003 (sc), vehicle: Klucel (hydroxypropylcellulose) (HPC)
# [10] = dose: 1200.0 mg/kg/injection, schedule: Q04DX003 (sc), vehicle: Klucel (hydroxypropylcellulose) (HPC)
# [11] = dose: 2400.0 mg/kg/injection, schedule: Q04DX003 (sc), vehicle: Klucel (hydroxypropylcellulose) (HPC)
# [12] = dose: 100.0 mg/kg/injection, schedule: Q04DX003 (sc), vehicle: saline
# [13] = dose: 200.0 mg/kg/injection, schedule: Q04DX003 (sc), vehicle: saline
# [14] = dose: 400.0 mg/kg/injection, schedule: Q01DX010 (sc), vehicle: Klucel (hydroxypropylcellulose) (HPC)
# [15] = dose: 50.0 mg/kg/injection, schedule: Q01DX010 (sc), vehicle: saline
# [16] = dose: 100.0 mg/kg/injection, schedule: Q01DX010 (sc), vehicle: saline
compound,measurement,setting,value
Cc1cc2c(c3oc(C4(C)OC4C4OC4C)cc(=O)c13)C(=O)c1c(O)c(C3CC(C)(N(C)C)C(O)C(C)O3)cc(C3CC(N(C)C)C(O)C(C)O3)c1C2=O (configuration not stated),T/C,"dose: 0.03 mg/kg/injection, schedule: Q01DX010 (sc), vehicle: saline",57 % of control
same,T/C,"dose: 0.06 mg/kg/injection, schedule: Q01DX010 (sc), vehicle: saline",66 % of control
Cn1cnc([N+](=O)[O-])c1S(=O)(=O)NCN1CCOCC1,T/C,[1],34 % of control
same,T/C,[2],67 % of control
same,T/C,[3],43 % of control
NC(=S)c1cn(C2OC(CO)C(O)C2O)c2ncnc(N)c12 (configuration not stated),T/C,"dose: 6.25 mg/kg/injection, schedule: Q04DX003 (sc), vehicle: suspension in saline",58 % of control
same,T/C,[4],43 % of control
COc1ccc(CC2C(=O)NC(C)C(=O)N(C)C3C(=O)N(C)C(Cc4ccc(O)c(c4)Oc4ccc(cc4)C3O)C(=O)NC(C)C(=O)NC(C)C(=O)N2C)cc1 (configuration not stated),T/C,"dose: 0.5 mg/kg/injection, schedule: Q01DX010 (sc), vehicle: saline with Tween-80",69 % of control
same,T/C,"dose: 1.0 mg/kg/injection, schedule: Q01DX010 (sc), vehicle: saline with Tween-80",85 % of control
same,T/C,"dose: 2.0 mg/kg/injection, schedule: Q01DX010 (sc), vehicle: saline with Tween-80",96 % of control
same,T/C,"dose: 4.0 mg/kg/injection, schedule: Q01DX010 (sc), vehicle: saline with Tween-80",40 % of control
O=[Te]=O,T/C,[4],150 % of control
CC[C@](C)(O)C(=O)O[C@H]1C(=O)O[C@@H]2C[C@H]3C(C)=CC(=O)[C@@H](O)[C@]3(C)[C@H]3[C@@]4(O)OC[C@]32[C@@H]1[C@@H](C)[C@H]4O,T/C,"dose: 0.25 mg/kg/injection, schedule: Q01DX010 (sc), vehicle: Klucel (hydroxypropylcellulose) (HPC)",48 % of control
same,T/C,"dose: 0.5 mg/kg/injection, schedule: Q01DX010 (sc), vehicle: Klucel (hydroxypropylcellulose) (HPC)",71 % of control and 92 % of control
same,T/C,"dose: 1.0 mg/kg/injection, schedule: Q01DX010 (sc), vehicle: Klucel (hydroxypropylcellulose) (HPC)",70 % of control and 75 % of control
same,T/C,"dose: 2.0 mg/kg/injection, schedule: Q01DX010 (sc), vehicle: Klucel (hydroxypropylcellulose) (HPC)",43 % of control and 45 % of control
CC(Cc1ccc(O)cc1)NCC(O)c1ccc(O)c(O)c1 (configuration not stated),T/C,[5],62 % of control
same,T/C,[6],98 % of control
same,T/C,[7],61 % of control
S=C(Nc1ccc(Cl)c(Cl)c1)N1c2ccccc2-n2cccc2C1c1cccnc1 (configuration not stated),T/C,[8],58 % of control
same,T/C,[9],104 % of control
same,T/C,[10],71 % of control
same,T/C,[11],65 % of control
CC(/C=N/N=C(N)N)=N\N=C(N)N,T/C,"dose: 12.5 mg/kg/injection, schedule: Q01DX010 (sc), vehicle: water",81 % of control
same,T/C,"dose: 25.0 mg/kg/injection, schedule: Q01DX010 (sc), vehicle: water",78 % of control
same,T/C,"dose: 100.0 mg/kg/injection, schedule: Q01DX010 (sc), vehicle: water",58 % of control
COc1ccc(C[C@H](N)C(=O)NC2C(CO)OC(n3cnc4c(N(C)C)ncnc43)C2O)cc1 (some centres not stated),T/C,[12],109 % of control
same,T/C,[13],74 % of control
C[C@]12CCC(=O)C(O)=C1CC[C@@H]1[C@@H]2CC[C@]2(C)C(=O)CC[C@@H]12,T/C,[2],43 % of control
same,T/C,[3],30 % of control
same,T/C,"dose: 200.0 mg/kg/injection, schedule: Q01DX010 (sc), vehicle: Klucel (hydroxypropylcellulose) (HPC)",47 % of control
same,T/C,[14],48 % of control
CCCCCCCCCCCCCCCC(=O)Nc1ccn(C2OC(CO)C(O)C2O)c(=O)n1 (configuration not stated),T/C,"dose: 150.0 mg/kg/injection, schedule: Q04DX003 (sc), vehicle: water",32 % of control and 33 % of control
Cc1ccc(NCC2(/N=C/c3ccccc3)OC(CO)C(O)C2O)cc1 (configuration not stated),T/C,[8],122 % of control
same,T/C,[9],98 % of control
same,T/C,[10],80 % of control
same,T/C,[11],98 % of control
Brc1c(NC2=NCCN2)ccc2nccnc12,T/C,"dose: 25.0 mg/kg/injection, schedule: Q04DX003 (sc), vehicle: saline",75 % of control
same,T/C,"dose: 50.0 mg/kg/injection, schedule: Q04DX003 (sc), vehicle: saline",55 % of control
same,T/C,[12],79 % of control
same,T/C,[13],69 % of control
COC(=O)[C@@]12OC[C@]34[C@H]([C@@H](O)[C@@H]1O)[C@@]1(C)CC(=O)C(O)=C(C)[C@@H]1C[C@H]3OC(=O)[C@H](OC(=O)/C=C(\C)C(C)C)[C@@H]24,T/C,"dose: 0.25 mg/kg/injection, schedule: Q04DX003 (sc), vehicle: saline + alcohol",115 % of control
same,T/C,"dose: 0.5 mg/kg/injection, schedule: Q01DX010 (sc), vehicle: saline + alcohol",101 % of control
same,T/C,"dose: 0.5 mg/kg/injection, schedule: Q04DX003 (sc), vehicle: saline + alcohol",91 % of control
same,T/C,"dose: 1.0 mg/kg/injection, schedule: Q04DX003 (sc), vehicle: saline + alcohol",114 % of control
same,T/C,"dose: 2.0 mg/kg/injection, schedule: Q04DX003 (sc), vehicle: saline + alcohol",59 % of control
Cc1c2ccncc2c(C)c2c1[nH]c1ccccc12,T/C,"dose: 6.25 mg/kg/injection, schedule: Q01DX010 (sc), vehicle: saline",24 % of control
same,T/C,"dose: 12.5 mg/kg/injection, schedule: Q01DX010 (sc), vehicle: saline",85 % of control
same,T/C,[15],72 % of control and 75 % of control
same,T/C,[16],59 % of control
Cn1cnc([N+](=O)[O-])c1SCC(=O)O,T/C,[16],71 % of control
same,T/C,"dose: 200.0 mg/kg/injection, schedule: Q01DX010 (sc), vehicle: saline",83 % of control
same,T/C,"dose: 400.0 mg/kg/injection, schedule: Q01DX010 (sc), vehicle: saline",103 % of control
same,T/C,"dose: 800.0 mg/kg/injection, schedule: Q01DX010 (sc), vehicle: saline",66 % of control
CCC[CH2][Hg][Cl],T/C,"dose: 18.75 mg/kg/injection, schedule: Q04DX003 (sc), vehicle: Klucel (hydroxypropylcellulose) (HPC)",69 % of control
same,T/C,"dose: 37.5 mg/kg/injection, schedule: Q04DX003 (sc), vehicle: Klucel (hydroxypropylcellulose) (HPC)",53 % of control
N=C(N)Sc1cc(O)ccc1O,T/C,"dose: 75.0 mg/kg/injection, schedule: Q04DX003 (sc), vehicle: saline",91 % of control
same,T/C,"dose: 150.0 mg/kg/injection, schedule: Q04DX003 (sc), vehicle: saline",164 % of control
CC(=O)O[C@H]1C(=O)[C@@]2(C)[C@H]([C@H](OC(=O)c3ccccc3)[C@]3(O)C[C@H](OC(=O)[C@H](O)[C@@H](NC(=O)c4ccccc4)c4ccccc4)C(C)=C1C3(C)C)[C@]1(OC(C)=O)CO[C@@H]1C[C@@H]2O,T/C,[1],40 % of control
same,T/C,[14],14 % of control
C[n+]1ccc(Nc2ccc(NC(=O)c3ccc(Nc4cc[n+](C)c5ccc(N)cc45)cc3)cc2)cc1,T/C,"dose: 12.5 mg/kg/injection, schedule: Q04DX003 (sc), vehicle: distilled water + Tween-80",80 % of control
same,T/C,"dose: 25.0 mg/kg/injection, schedule: Q04DX003 (sc), vehicle: distilled water + Tween-80",86 % of control
same,T/C,"dose: 50.0 mg/kg/injection, schedule: Q04DX003 (sc), vehicle: distilled water + Tween-80",25 % of control
same,T/C,"dose: 100.0 mg/kg/injection, schedule: Q04DX003 (sc), vehicle: distilled water + Tween-80",53 % of control
COc1cccc2c1C(=O)c1c(O)c3c(c(O)c1C2=O)C[C@@](O)(C(=O)CO)C[C@@H]3OC1CC(N)C(OC)C(C)O1 (some centres not stated),T/C,"dose: 0.75 mg/kg/injection, schedule: Q01DX010 (sc), vehicle: saline",29 % of control
same,T/C,"dose: 3.0 mg/kg/injection, schedule: Q01DX010 (sc), vehicle: saline",14 % of control
C=CC(=O)NCNC(=O)C=C,T/C,"dose: 25.0 mg/kg/injection, schedule: Q01DX010 (sc), vehicle: saline",88 % of control
same,T/C,[15],103 % of control
same,T/C,[16],64 % of control
COc1ccc(/C=C/C(=O)c2cc(C(=O)O)c(OC)cc2OC)cc1OC,T/C,"dose: 300.0 mg/kg/injection, schedule: Q04DX003 (sc), vehicle: suspension in saline",100 % of control
same,T/C,"dose: 600.0 mg/kg/injection, schedule: Q04DX003 (sc), vehicle: suspension in saline",56 % of control
same,T/C,"dose: 1200.0 mg/kg/injection, schedule: Q04DX003 (sc), vehicle: suspension in saline",73 % of control
same,T/C,"dose: 2400.0 mg/kg/injection, schedule: Q04DX003 (sc), vehicle: suspension in saline",66 % of control
COc1cc(C2c3cc4c(cc3C(O)C(CO)C2CO)OCO4)cc(OC)c1OC (configuration not stated),T/C,[5],103 % of control
same,T/C,[6],95 % of control
same,T/C,[7],90 % of control
same,T/C,"dose: 2400.0 mg/kg/injection, schedule: Q04DX003 (sc), vehicle: saline with Tween-80",38 % of control
